{"source": "PubChem BioAssay AID1259407", "about": "(Chemical Carcinogenesis Research Information System (CCRIS), 2018)", "test_system": "CCRIS mutagenicity, Ames/micronucleus/aberration tests", "assay": "CCRIS mutagenicity studies", "excerpt": "The CCRIS database contains chemical records with carcinogenicity, mutagenicity, tumor promotion, and tumor inhibition test results. It was developed by the National Cancer Institute (NCI). Data are derived from studies cited in primary journals, current awareness tools, NCI reports, and other sources. Test results have been reviewed by experts in carcinogenesis and mutagenesis.\nCCRIS provides historical information from the years 1985 - 2011. It is no longer updated.\nThis is an archive assay for CCRIS mutagenicity studies.", "key": {"[1]": {"conditions": "Test System: AMES SALMONELLA TYPHIMURIUM, Strain/Indicator: TA98, Metabolic Activation: NONE, Method: STANDARD PLATE"}, "[2]": {"conditions": "Test System: AMES SALMONELLA TYPHIMURIUM, Strain/Indicator: TA100, Metabolic Activation: NONE, Method: PREINCUBATION"}, "[3]": {"conditions": "Test System: AMES SALMONELLA TYPHIMURIUM, Strain/Indicator: TA100, Metabolic Activation: NONE, Method: STANDARD PLATE"}}, "note": "Calls of active or inactive are those of the source. How the calls were made is not given here."}
{"smiles": "O=[N+]([O-])c1ccc(Cl)c([N+](=O)[O-])c1", "values": [{"measurement": "mutagenic call", "setting": "Test System: AMES SALMONELLA TYPHIMURIUM, Strain/Indicator: TA98(1,8-DNP6), Metabolic Activation: NONE, Method: PREINCUBATION", "value": "active; positive"}, {"measurement": "mutagenic call", "setting": "Test System: AMES SALMONELLA TYPHIMURIUM, Strain/Indicator: TA98(NR), Metabolic Activation: NONE, Method: PREINCUBATION", "value": "active; positive"}, {"measurement": "mutagenic call", "setting": "Test System: AMES SALMONELLA TYPHIMURIUM, Strain/Indicator: TA98, Metabolic Activation: NONE, Method: PREINCUBATION", "value": "active; positive"}, {"measurement": "mutagenic call", "setting": "[1]", "value": "active; positive"}, {"measurement": "mutagenic call", "setting": "Test System: AMES SALMONELLA TYPHIMURIUM, Strain/Indicator: TA98, Metabolic Activation: RAT LIVER S-9, AROCLOR 1254 (10%), Method: STANDARD PLATE", "value": "active; positive"}, {"measurement": "mutagenic call", "setting": "Test System: AMES SALMONELLA TYPHIMURIUM, Strain/Indicator: TA98, Metabolic Activation: RAT, LIVER, S-9, KANECHLOR 500, Method: PREINCUBATION", "value": "active; positive"}, {"measurement": "mutagenic call", "setting": "Test System: AMES SALMONELLA TYPHIMURIUM, Strain/Indicator: TA98NR/1,8-DNP6, Metabolic Activation: NONE, Method: STANDARD PLATE", "value": "inactive; negative"}, {"measurement": "mutagenic call", "setting": "Test System: AMES SALMONELLA TYPHIMURIUM, Strain/Indicator: TA98NR, Metabolic Activation: NONE, Method: STANDARD PLATE", "value": "active; positive"}, {"measurement": "mutagenic call", "setting": "Test System: AMES SALMONELLA TYPHIMURIUM, Strain/Indicator: TA100(NR), Metabolic Activation: NONE, Method: PREINCUBATION", "value": "active; positive"}, {"measurement": "mutagenic call", "setting": "Test System: AMES SALMONELLA TYPHIMURIUM, Strain/Indicator: TA100/GSH-, Metabolic Activation: NONE, Method: PREINCUBATION", "value": "active; positive"}, {"measurement": "mutagenic call", "setting": "[2]", "value": "active; positive"}, {"measurement": "mutagenic call", "setting": "[3]", "value": "active; positive"}, {"measurement": "mutagenic call", "setting": "Test System: AMES SALMONELLA TYPHIMURIUM, Strain/Indicator: TA100, Metabolic Activation: RAT, LIVER, S-9, KANECHLOR 500, Method: PREINCUBATION", "value": "inactive; negative"}, {"measurement": "mutagenic call", "setting": "Test System: AMES SALMONELLA TYPHIMURIUM, Strain/Indicator: YG1021, Metabolic Activation: NONE, Method: STANDARD PLATE", "value": "active; positive"}, {"measurement": "mutagenic call", "setting": "Test System: AMES SALMONELLA TYPHIMURIUM, Strain/Indicator: YG1024, Metabolic Activation: NONE, Method: STANDARD PLATE", "value": "active; positive"}, {"measurement": "mutagenic call", "setting": "Test System: Ames Salmonella typhimurium, Strain/Indicator: TA98, Metabolic Activation: None, Method: Preincubation", "value": "active; positive"}, {"measurement": "mutagenic call", "setting": "Test System: Ames Salmonella typhimurium, Strain/Indicator: TA98, Metabolic Activation: Rat, Liver, S9, Sodium phenobarbital and 5,6-benzoflavone (10%), Method: Preincubation", "value": "active; positive"}, {"measurement": "mutagenic call", "setting": "Test System: Ames Salmonella typhimurium, Strain/Indicator: TA100, Metabolic Activation: None, Method: Preincubation", "value": "active; positive"}, {"measurement": "mutagenic call", "setting": "Test System: Ames Salmonella typhimurium, Strain/Indicator: TA100, Metabolic Activation: Rat, Liver, S9, Sodium phenobarbital and 5,6-benzoflavone (10%), Method: Preincubation", "value": "active; positive"}, {"measurement": "mutagenic call", "setting": "Test System: Ames Salmonella typhimurium, Strain/Indicator: TA1535, Metabolic Activation: None, Method: Preincubation", "value": "active; positive"}, {"measurement": "mutagenic call", "setting": "Test System: Ames Salmonella typhimurium, Strain/Indicator: TA1535, Metabolic Activation: Rat, Liver, S9, Sodium phenobarbital and 5,6-benzoflavone (10%), Method: Preincubation", "value": "active; positive"}, {"measurement": "mutagenic call", "setting": "Test System: Ames Salmonella typhimurium, Strain/Indicator: TA1537, Metabolic Activation: Rat, Liver, S9, Sodium phenobarbital and 5,6-benzoflavone (10%), Method: Preincubation", "value": "active; positive"}]}
{"smiles": "O=C1C=CC(=O)N1", "values": [{"measurement": "mutagenic call", "setting": "Test System: AMES SALMONELLA TYPHIMURIUM, Strain/Indicator: TA98, Metabolic Activation: HAMSTER, LIVER, S-9, AROCLOR 1254, Method: STANDARD PLATE", "value": "active; positive"}, {"measurement": "mutagenic call", "setting": "[1]", "value": "active; positive"}, {"measurement": "mutagenic call", "setting": "Test System: AMES SALMONELLA TYPHIMURIUM, Strain/Indicator: TA98, Metabolic Activation: RAT, LIVER, S-9, AROCLOR 1254, Method: STANDARD PLATE", "value": "active; positive"}, {"measurement": "mutagenic call", "setting": "Test System: AMES SALMONELLA TYPHIMURIUM, Strain/Indicator: TA100, Metabolic Activation: HAMSTER, LIVER, S-9, AROCLOR 1254, Method: STANDARD PLATE", "value": "inactive; negative"}, {"measurement": "mutagenic call", "setting": "[3]", "value": "inactive; negative"}, {"measurement": "mutagenic call", "setting": "Test System: AMES SALMONELLA TYPHIMURIUM, Strain/Indicator: TA100, Metabolic Activation: RAT, LIVER, S-9, AROCLOR 1254, Method: STANDARD PLATE", "value": "active; positive"}, {"measurement": "mutagenic call", "setting": "Test System: MOUSE LYMPHOMA, Strain/Indicator: L5178Y (TK+/TK-), Metabolic Activation: NONE, Method: SUSPENSION/PLATE", "value": "active; positive. reevaluation of results: inconclusive"}, {"measurement": "mutagenic call", "setting": "Test System: MOUSE LYMPHOMA, Strain/Indicator: L5178Y (TK+/TK-), Metabolic Activation: RAT, LIVER, S-9, AROCLOR 1254, Method: SUSPENSION/PLATE", "value": "active; positive. reevaluation of results: positive"}]}
{"smiles": "CCOC(=O)N(CCC=O)N=O", "values": [{"measurement": "mutagenic call", "setting": "[2]", "value": "active; positive"}, {"measurement": "mutagenic call", "setting": "Test System: AMES SALMONELLA TYPHIMURIUM, Strain/Indicator: TA104, Metabolic Activation: NONE, Method: PREINCUBATION", "value": "active; positive"}, {"measurement": "mutagenic call", "setting": "Test System: AMES SALMONELLA TYPHIMURIUM, Strain/Indicator: TA1535, Metabolic Activation: NONE, Method: PREINCUBATION", "value": "active; positive"}]}
{"smiles": "CC1Cc2cccc3c2N1C(C)C3.CC1Cc2cccc3c2N1C(C)C3.[Cl-].[Cl-].[Cl-].[Cl-].[Pt+2].[Pt+2]", "note": "(centres undefined)", "values": [{"measurement": "mutagenic call", "setting": "Test System: AMES SALMONELLA TYPHIMURIUM, Strain/Indicator: TA92, Metabolic Activation: NONE, Method: STANDARD PLATE", "value": "inactive; negative"}, {"measurement": "mutagenic call", "setting": "[1]", "value": "inactive; negative"}, {"measurement": "mutagenic call", "setting": "[3]", "value": "inactive; negative"}, {"measurement": "mutagenic call", "setting": "Test System: AMES SALMONELLA TYPHIMURIUM, Strain/Indicator: TA2410, Metabolic Activation: NONE, Method: STANDARD PLATE", "value": "inactive; negative"}, {"measurement": "mutagenic call", "setting": "Test System: E. COLI, Strain/Indicator: TM6, Metabolic Activation: NONE, Method: STANDARD PLATE", "value": "inactive; negative"}, {"measurement": "mutagenic call", "setting": "Test System: E. COLI, Strain/Indicator: TM9, Metabolic Activation: NONE, Method: STANDARD PLATE", "value": "inactive; negative"}]}
{"smiles": "O=C/C(Br)=C(/Br)C(=O)O", "values": [{"measurement": "mutagenic call", "setting": "End Point: In vitro micronucleus, Test System: Human lymphocytes, Metabolic Activation: None", "value": "inactive; negative"}, {"measurement": "mutagenic call", "setting": "[3]", "value": "active; positive"}]}
{"smiles": "COc1cccc2c1C(=O)c1c(O)c3c(c(O)c1C2=O)C[C@@](O)(C(=O)CO)CC3O[C@H]1C[C@H](N(C)C)[C@H](O)[C@H](C)O1", "note": "(some centres undefined)", "values": [{"measurement": "mutagenic call", "setting": "Test System: AMES SALMONELLA TYPHIMURIUM, Strain/Indicator: TA98, Metabolic Activation: NONE", "value": "inactive; negative"}, {"measurement": "mutagenic call", "setting": "Test System: AMES SALMONELLA TYPHIMURIUM, Strain/Indicator: TA98, Metabolic Activation: RAT, LIVER, S-9, AROCLOR 1254", "value": "inactive; negative"}, {"measurement": "mutagenic call", "setting": "Test System: AMES SALMONELLA TYPHIMURIUM, Strain/Indicator: TA102, Metabolic Activation: NONE, Method: STANDARD PLATE", "value": "active; positive"}, {"measurement": "mutagenic call", "setting": "Test System: UDS RAT HEPATOCYTES, Strain/Indicator: THY INCORP, Metabolic Activation: NONE, Method: AUTOMATIC COLONY COUNTER", "value": "active; positive"}]}
{"smiles": "NC(=O)c1csc([N+](=O)[O-])c1", "values": [{"measurement": "mutagenic call", "setting": "[1]", "value": "active; positive"}, {"measurement": "mutagenic call", "setting": "[3]", "value": "active; positive"}]}
{"smiles": "O=C1NC(c2ccc([N+](=O)[O-])s2)Nc2ccccc21", "note": "(centres undefined)", "values": [{"measurement": "mutagenic call", "setting": "[1]", "value": "active; positive"}, {"measurement": "mutagenic call", "setting": "[3]", "value": "active; positive"}]}
